One data set concerns low passage (<p4) ADSCs. Briefly: CellTiter 96 AQueous Cell Proliferation Assay (cell toxicity). Format: cell-based, human. As to the method: Banked ADSCs isolated from person three, person four, person two, and person one were purchased and cultured with normal growth media (DMEM/F:12, 10% FBS, and 1% penicillin/streptomycin).
Fisetin was added to growth media and treated on cells for 24 hours. Following treatment, the media was changed to normal growth media for 24 hours before being used for cell toxicity, immunofluorescence, or flow cytometry.
The CellTiter 96® AQueous Cell Proliferation Assay was used to determine the toxicity of 50 μM, 25 μM, and 1 μM Fisetin on low passage (<p4) cells. Cells were seeded at 40,000 cells/well in a 12-well plate. After adhering overnight, the cells were treated with 50 μM, 25 μM, and 1 μM of Fisetin for 24 hours. After treatment, the media was changed back to normal growth media for another 24 hours. The cells were then treated with the CellTiter 96 AQueous Cell Proliferation Assay following the manufacturer's protocol. Values are relative to untreated, control cells.

For data set [1], the system named is senescent ADSCs (β-galactosidase, C12FDG). As to the kind of experiment: C12FDG staining of senescence-associated β-galactosidase with flow cytometry in culture-expanded ADSCs. The data set is classed as cell-based, human. The method, then:
Cells were treated with 100 nM of bafilomycin A1 for 1 hour at 37° C. and 5% CO2. Next, 33 μM C12FDG was added and incubated for 2 hours. Thus, cells were stained with the fluorescent senescence-associated marker C12FDG, collected, and tested for senescence using flow cytometry after 50 μM Fisetin treatment. 3 replicates were used per treatment. The InCyte software was used, and fluorescent gating was determined using unstained control cells.
To determine Fisetin's senolytic ability in vitro, based on the data from the preceding example, the 50 μM Fisetin concentration was used to treat YF and OF cells. Senescent cells were quantified by immunofluorescence using ? -H2AX and H3K9. Similarly, YM and OM cells were quantified using C12FDG for flow cytometry. C12FDG reacts with beta-galactosidase, a biomarker for senescence, to produce a fluorogenic substrate to be detected and quantified by flow cytometry.
Cells were seeded in triplicate for each group using previously described culture methods and seeding densities. After adhering overnight, the media was changed. […] After culturing in normal growth media for another 24 hours, the media was collected for SASP quantification or the cells were processed for C12FDG or SAHF staining, as described in the preceding example.
In general terms: Flow cytometry measures light scatter and fluorescence of single cells or particles in a stream.

Data set [2] relates to senescence-associated heterochromatin foci (SAHF) in ADSCs. As to the kind of experiment: Immunofluorescence of senescence-associated heterochromatin foci (H3K9, γ-H2AX) in ADSCs. The data set is classed as cell-based, human. To be noted: 50 μM Fisetin. As to the method:
Specifically, the cells were maintained in T-75 culture flasks using normal growth media (DMEM:F-12 with 10% FBS and 1% penicillin/streptomycin). At 70-90% confluency, the cells were passaged and reseeded in the flasks at a 1:4 dilution. At their respective testing passage number, cells were plated into chamber slides for SAHF staining at a density of 5,000 cells/cm^2. Cells were seeded in triplicate for each group and incubated to adhere overnight. The following day, cells were fixed with cold 4% paraformaldehyde and stained with the H2AX antibody using a 1:150 dilution and the H3K9 antibody using a 1:250 dilution. DAPI was also used to stain the nuclei. Five images per well and three wells per group were imaged using the Nikon Eclipse Ni-U microscope. Cells positive for the H2AX and H3K9 antibodies were quantified using the ImageJ software.
Each cell type was given 3 replicate wells, and each well was imaged 6 times, for a total of 18 images per group. Using an Image J program, the number of cells positive for each marker was quantified.
To determine Fisetin's senolytic ability in vitro, based on the data from the preceding example, the 50 μM Fisetin concentration was used to treat YF and OF cells. Senescent cells were quantified by immunofluorescence using ? -H2AX and H3K9. Similarly, YM and OM cells were quantified using C12FDG for flow cytometry. […]

Data set [3] concerns SASP factors IL-6, IL-8, MCP-1. Briefly: SASP factor quantification in ADSC culture media (Milliplex). Format: cell-based, human. Conditions: after Fisetin treatment, media 24 hours. The method, then:
For SASP detection, the media were collected after incubating with the cells for 24 hours, centrifuged at 2,000×g for ten minutes, transferred to new microcentrifuge tubes, and stored at −80° C. until testing. The Human Adipocyte Milliplex kit using the EMD Millipore Milliplex instrument was used to quantify the SASPs.
Cells were seeded in triplicate for each group using previously described culture methods and seeding densities. After adhering overnight, the media was changed. For the untreated group normal ADSC growth media was used (DMEM:F-12 with 10% FBS and 1% penicillin/streptomycin), and for the treated group 50 μM Fisetin was added. Cells were treated for 24-hours, after which the media was changed back to normal growth media for all groups. After culturing in normal growth media for another 24 hours, the media was collected for SASP quantification or the cells were processed for C12FDG or SAHF staining, as described in the preceding example.
Within the R1 region of FIGS. 4B-4D, cells positive for C12FDG are noted by their respective peaks. […] In all groups, a decrease was indicated. […] 3 replicates were used for each treatment. (FIG. 6).

In the next data set the test system is senescent CD3+ T-cells. As to the kind of experiment: Senescent peripheral blood CD3+ T-cells before and after oral Fisetin, C12FDG flow cytometry (person). Format: in vivo, human. To be noted: CD3+ cells after Fisetin treatment, 100 mg per day for 45 days. The method, then:
Whole blood was collected from a subject into 50 ml Syringe containing ACD-A and set on a rocker. SepMate tubes (Stem Cell Technologies) were prepared with 15 ml Lymphoprep in a sterile environment. 10 ml whole blood were aliquoted into 50 ml conical tubes. 500 μl (50 μl/ml) RosetteSep (Stem Cell Technologies) was added to 10 mL sample of blood. For other blood samples, total PBMCs were collected as described below without T-cell enrichment for comparison. The mixture was incubated 10 min at room temperature (RT). An equal volume dilution medium (DM-sterile PBS and 2% FBS) was added to the sample and mixed gently. The diluted sample was slowly added to the SepMate tube containing Lymphoprep density gradient medium. The mixture was centrifuged at 1200×g for 10 minutes, brake on. The enriched cells were collected by pouring supernatant into a new tube. […]
Senescent cells were treated with Fisetin and then further characterized using flow cytometry (as described in Example 4, above). Peripheral Blood CD3+ T-cells from a person before & after Fisetin treatment (100 mg per day for 45 days) were evaluated for senescence and for senescent cell populations. Before treatment, the subject measured about 29% senescent cells, and after treatment, the subject measured about 4% senescent cells (data not shown).

For another data set, the system named is C12FDG+ T-Cells. As to the kind of experiment: Bright and dim C12FDG+ T-cells in five patients treated with Fisetin. Format: in vivo, human. The method, then:
A certified phlebotomist used a 19-gauge butterfly needle to perform a standard venipuncture from the antecubital (AC) area, forearm or hand vein. Approximately 35 mL of blood was drawn into one 30 cc syringe (with ACD-A) and one 5 cc (without ACD-A) syringe. […] For total PBMCs and enriched T-Cells, SepMate™ tubes (Stem Cell Technologies) were used following manufactures protocol with Lymphoprep™ (Stem Cell Technologies) gradient centrifugation. Specifically, in separate tubes, CD3+ T-Cells were enriched using the RosetteSep™ commercial kit following manufactures instructions (Stem Cell Technologies #15021). A portion of cells (enriched T-cells and total PBMCs) were stained with 30 μM C12FDG in general culture media supplemented with 10% FBS and analyzed with flow cytometry (Guava EasyCyte, Luminex). To assess the percent, number, and concentration (cell/ml) of senescent CD3+ T-cells and PBMCs, settings were adjusted first using an unstained control (i.e., cells not treated with C12FDG). First, thresholds were set for FSC and SSC to catch cellular events. Next the green channel gain controls were set so that the background events fall between the 1st and second decade. […] Samples were ran in triplicate with water-only runs every 5 wells. Five patients with an age range from 56-77 years were treated with Fisetin at 100 mg/day for 30-45 days.

In data set [4] the test system is Zmpste24−/− mice. Briefly: Micro-CT analysis of bone in progeroid Z24−/− mice given senolytic drugs. The data set is classed as in vivo, mouse. As to the method: (§1) Adult progeroid Z24−/− mice were administered senolytic drugs via oral gavage (150 μl volume) starting at 2.5 to 3.0 months of age. D/Q (5 mg/kg: 50 mg/kg in 10% PEG400/5.0% DMSO) was given as a single dose at 2.5 months or multi-dose at 2.5, 3.0, 3.5, 4.0, 4.5, and 5.0 months. Both single and multi-dose DQ mice were sacrificed at 5 months. FIS (100 mg/kg in 90% PEG400/10.0% ethanol) treated mice were given a total of 4 weekly doses of drug starting at 3.0 months of age, then sacrificed at 4.0 months of age. For 17-DMAG treatments (10 mg/kg, 1% DMSO-PBS), mice were treated 3 times per week starting at 2 months of age then sacrificed at 4 months of age.
For Fisetin treatments, mice were imaged using the explore Locus Utra Pre-Clinical CT Scanner (GE Healthcare, London, ON) through the pre-Clinical CT Core Facility with the following acquisition settings: 140 kVp, 22 mA with 16 s rotation/exposure. Non-cardiac gated CT images were acquired at all-time points. Simple back projections were obtained from the […] image reconstruction and exported as DICOM images. Image analysis was performed using the OsiriX software. Qualitative analysis of the bones was performed in 2D and 3D reconstructions using OsiriX. MicroView imaging software was also used for the quantitative analysis of the bone mineral density.
(§2) Z24−/−mice were treated with Fisetin weekly for 4 weeks (100 mg/kg) starting at 3 months of age then sacrificed at 4 months of age. 4 months was chosen as a sacrifice time (versus 5 months) given the more advanced pathology that occurred at 5 months, a time when therapies might have negligible effects like seen in D+Q treated animals.

Data set [5] has as its system Zmpste24−/− mice. As to the kind of experiment: Transcript levels of senescence marker and SASP factors in tissues of Z24−/− mice. To be noted: 100 mg/kg weekly. Format: in vivo, mouse. As to the method: as §1, §2
A further data set concerns mice OA models. To be noted: cited from earlier work.
The conditions of data set [6]: Losartan administration; cited from earlier work.
Setting [7] is: treated versus untreated Z24−/− mice.

“Also recorded” adds a separate entry of the source.

Turning to `O=c1c(O)c(-c2ccc(O)c(O)c2)oc2cc(O)ccc12` [Fisetin, 2-(3,4-dihydroxyphenyl)-3,7-dihydroxychromen-4-one], the “toxicity to the health of low passage ADSCs” value in the data set with low passage (<p4) ADSCs (50 μM) is recorded as “not toxic”. Moreover, in the data set with low passage (<p4) ADSCs (50 μM, 25 μM, 1 μM, YF, OF, YM, OM, relative to untreated control cells), the “percentage of viable cells among treatments” value is recorded as “no significant difference”. Also, the “toxicity to ADSCs” value in the data set on low passage (<p4) ADSCs (1-50 μM, 24 hours treatment) is “non-toxic”. Further, the “ADSC viability and proliferation” value in the data set with low passage (<p4) ADSCs (Fisetin exposure) is “not hindered”. Also, in data set [1] (50 μM Fisetin, 24 hours, passages 6, 8, 10), the “% cells positive for C12FDG (senescence)” value is “significantly reduced; also recorded: reduced at every passage”. Also, the “count of the peak representing senescent cells (histogram)” value in [1] (cells treated with 50 μM Fisetin) was “about 20”. Besides, in [2] (OF and YF cells, passages 4 and 18), the “number of cells positive for H3K9” value is given as “significantly reduced in all groups”. Besides, the γ-H2AX positive cells result in data set [2] (low passage OF, low passage YF, high passage YF cells) was “reduced”. For the same compound, in data set [3], the IL-6 concentration result is on record as “decrease”, the IL-8 concentration entry is listed as “decrease” and the MCP-1 concentration result is reported as “decrease”. In the data set on senescent CD3+ T-cells, the Senescent cell concentration is recorded as 7397 +/− 3191 cells/mL and the Total senescent cells is recorded as 191 +/− 73. Further, the “reduction in the percent of C12FDG+ cells (dim, early stage)” value in the data set with C12FDG+ T-Cells (100 mg/day for 30-45 days) is on record as 1-2 fold. For the same compound, in the data set on C12FDG+ T-Cells (P19, treated/post-treated), the “bright cells, mean” value was determined as 1.15% and the “dim cells, mean” value stood at 26.70%. Moreover, in the data set with C12FDG+ T-Cells (P50, treated/post-treated), the “bright cells, mean” value came out at 0.60% and the “dim cells, mean” value was 27.55%. Moreover, the “reduction in bright C12FDG+ T-cells” value in the data set on C12FDG+ T-Cells (patients with high baseline bright cells, 100 mg/day for 30-45 days) was 10-20 fold. In the data set on Zmpste24−/− mice [4] (100 mg/kg weekly for 4 weeks from 3 months of age, micro-CT), the bone density loss entry is listed as “significantly attenuate”. The “protective effects in bone” value in the data set on Zmpste24−/− mice [4] (Z24−/− mice, oral gavage) was “effective”. In addition, in the data set with Zmpste24−/− mice [4] (setting [7]), the “Hounsfield unit (HU) intensity” value is reported as “Significant higher scores”, the “bone mineral density (BMD)” value was “Significant higher scores” and the “specific bone surface (BS/BV)” value is on record as “Significant higher scores”. In the data set with Zmpste24−/− mice [5], the “transcript levels of IL-6” value is listed as “reduced”, the “transcript levels of TGF-β” value was “reduced” and the “transcript levels of p16INK4a” value is “reduced”. In addition, in the data set on mice OA models, the cartilage destruction result is listed as “decreased”, the “subchondral bone plate thickness” value was “decreased” and the synovitis entry is “relieved”.
Turning to `CCCCc1nc(Cl)c(CO)n1Cc1ccc(-c2ccccc2-c2nn[nH]n2)cc1` [Losartan], the “microfracture for cartilage repair” value in [6] was “enhance”.

Values taken from patent publication US20240299457A1, “METHODS FOR TREATING DISEASE ASSOCIATED WITH SENESCENCE” (Steadman Philippon Research Institute, priority 2019, published 2024).
